Our source for the ring closure, yield after HPLC, ring closure, crude yield and ring closure, isolated yield values is US12324802B2, “Modulators of cystic fibrosis transmembrane conductance regulator” (Vertex Pharmaceuticals Incorporated, priority 2020, dated 2025).

For series [1] the following is noted: from CC(C)(C)OC(=O)NCC(C)(C)OCCC[C@@](OCc1ccccc1)(c1nnc(-c2nc(Cl)c(C(F)(F)F)cc2[N+](=O)[O-])o1)C(F)(F)F; snar bond; 14-membered ring; TFA; then DIEA; DCM; 0.96 mM; 25.0 °C; 2 steps.
For series [2] the following is noted: rcm bond, DCE.

Like-named read-outs stand apart in the source and are kept apart here.

With “6-benzyloxy-12,12-dimethyl-17-nitro-6,15-bis(trifluoromethyl)-19-oxa-3,4,13,18-tetrazatricyclo[12.3.1.12,5]nonadeca-1(18),2,4,8,14,16-hexaen-7-ol (E/Z olefin mixture, cis diol)”, the ring closure, yield after HPLC (rcm bond, 14-membered ring, Zhan catalyst-1B, 70.0 °C) turned out to be 49%.

The molecule `CC1(C)CNc2nc(c([N+](=O)[O-])cc2C(F)(F)F)C2=NN=C(O2)[C@@](OCc2ccccc2)(C(F)(F)F)CCCO1` gave a ring closure, crude yield in series [1] of 99%.

Turning to `CN1CCN(C)c2nc(c(NC(=O)OC(C)(C)C)cc2C(F)(F)F)C2=NN=C(O2)C(OCc2ccccc2)(C(F)(F)F)CCC1=O` (stereo not drawn), the ring closure, yield after HPLC (from CNCCN(C)c1nc(-c2nnc(C(CCC(=O)O)(OCc3ccccc3)C(F)(F)F)o2)c(NC(=O)OC(C)(C)C)cc1C(F)(F)F, amide bond, 14-membered ring, HATU/DIEA, DMF, 9.16 mM, 25.0 °C, 3.0 h) is 70%.

Under “from C=CCCC(C)(C)Nc1nc(-c2nnc([C@@](CC=C)(OCc3ccccc3)C(F)(F)F)o2)c([N+](=O)[O-])cc1C(F)F, rcm bond, 14-membered ring, Zhan catalyst-1B, DCE, 5.67 mM, 65.0 °C, 4.5 h”, `CC1(C)CCC=CC[C@](OCc2ccccc2)(C(F)(F)F)C2=NN=C(O2)c2nc(c(C(F)F)cc2[N+](=O)[O-])N1` (mixture of isomers) had a ring closure, yield after HPLC of 20%.

`CC(C)(C)OC(=O)Nc1cc(C(F)(F)F)c2nc1-c1nnc(o1)C(OCc1ccccc1)(C(F)(F)F)CCC=CC1CCCN21` (mixture of isomers) displayed a ring closure, yield after HPLC (from C=CCCC(OCc1ccccc1)(c1nnc(-c2nc(N3CCCC3C=C)c(C(F)(F)F)cc2NC(=O)OC(C)(C)C)o1)C(F)(F)F, rcm bond, 13-membered ring, Zhan-1B (two charges), DCE, 6.25 mM, 85.0 °C, 23.0 h) of 3%.

Regarding `CC(C)(C)OC(=O)Nc1cc(C(F)(F)F)c2nc1-c1nnc(o1)C(OCc1ccccc1)(C(F)(F)F)CC=CC[C@@H]1CCCN21` (mixture of isomers), the ring closure, isolated yield in series [2] (from C=CC[C@@H]1CCCN1c1nc(-c2nnc(C(CC=C)(OCc3ccccc3)C(F)(F)F)o2)c(NC(=O)OC(C)(C)C)cc1C(F)(F)F, 13-membered ring, Zhan-1B (two charges), 6.47 mM, 80.0 °C, 36.0 h) was 6.5%.

In series [2] (from [2H]C([2H])([2H])C(CC=C)(Nc1nc(-c2nnc([C@@](CCC=C)(OCc3ccccc3)C(F)(F)F)o2)c([N+](=O)[O-])cc1C(F)(F)F)C([2H])([2H])[2H], 14-membered ring, Zhan catalyst-1B, 11.0 mM, 75.0 °C, 3.0 h), `CC1(C)CC=CCC[C@](OCc2ccccc2)(C(F)(F)F)C2=NN=C(O2)c2nc(c(C(F)(F)F)cc2[N+](=O)[O-])N1` (mixture of isomers) yielded a ring closure, isolated yield of 37.8%.

Consider `O=[N+]([O-])c1cc(C(F)(F)F)c2nc1-c1nnc(o1)C(OCc1ccccc1)(C(F)(F)F)CCC=CCCN2Cc1ccccc1` (mixture of isomers), for which the ring closure, isolated yield in series [2] (from C=CCCN(Cc1ccccc1)c1nc(-c2nnc(C(CCC=C)(OCc3ccccc3)C(F)(F)F)o2)c([N+](=O)[O-])cc1C(F)(F)F, 14-membered ring, Zhan-1B, 1.77 mM, 75.0 °C, 3.0 h) came to 68%.

As to `CC1(C)CC=CCC(OCc2ccccc2)(C(F)(F)F)C2=NN=C(O2)c2nc(c(C(F)(F)F)cc2[N+](=O)[O-])NC1` (mixture of isomers), the ring closure, isolated yield in series [2] (from C=CCC(C)(C)CNc1nc(-c2nnc(C(CC=C)(OCc3ccccc3)C(F)(F)F)o2)c([N+](=O)[O-])cc1C(F)(F)F, 14-membered ring, Zhan catalyst-1B, 2.0 mM, 80.0 °C, 16.0 h) amounted to 14%.

For `O=[N+]([O-])c1cc(Cl)c2nc1-c1nnc(o1)C(OCc1ccccc1)(C(F)(F)F)CCC=CC[C@@H]1CCCN21` (mixture of isomers), in series [2] (from C=CCCC(OCc1ccccc1)(c1nnc(-c2nc(N3CCC[C@H]3CC=C)c(Br)cc2[N+](=O)[O-])o1)C(F)(F)F, 14-membered ring, Zhan-1B, 5.74 mM, 70.0 °C, 3.0 h), the ring closure, isolated yield stood at 73%.

`CC(C)(C)OC(=O)N(C(=O)OC(C)(C)C)c1cc(C(F)(F)F)c2nc1-c1nnc(o1)[C@@](OCc1ccccc1)(C(F)(F)F)CCC=CCC(c1ccccn1)N2` (mixture of isomers) displayed a ring closure, isolated yield in series [2] (from C=CCC[C@@](OCc1ccccc1)(c1nnc(-c2nc(NC(CC=C)c3ccccn3)c(C(F)(F)F)cc2N(C(=O)OC(C)(C)C)C(=O)OC(C)(C)C)o1)C(F)(F)F, 14-membered ring, Zhan catalyst-1B, 1.5 mM, 85.0 °C, 12.0 h) of 24%.

Consider `O=C1NNC(=O)[C@@](OCc2ccccc2)(C(F)(F)F)CCC=CCC2(CCCCC2)Nc2nc1c([N+](=O)[O-])cc2C(F)(F)F` (mixture of isomers), for which the ring closure, isolated yield in series [2] (from C=CCC[C@@](OCc1ccccc1)(C(=O)NNC(=O)c1nc(NC2(CC=C)CCCCC2)c(C(F)(F)F)cc1[N+](=O)[O-])C(F)(F)F, 15-membered ring, Zhan catalyst-1B, 4.99 mM, 60.0 °C, 2.0 h) amounted to 70%.
